In ChEMBL document CHEMBL6109134, “Discovery of AMG 193, an MTA-Cooperative PRMT5 Inhibitor for the Treatment of MTAP-Deleted Cancers” (J Med Chem, 2025):
Converted amounts (≈) assume the structure as drawn.

Columns and labels:
[1] = test system: HCT-116; assay: Antiproliferative activity against human HCT-116 cells harboring wildtype MTAP assessed as effect on cell viability incubated for 6 days by Celltiter-Glo luminescent cell viability assay; format: functional, cell-based; details: HCT-116, 144 h
[2] = test system: human MDR1 (P-gp); assay: Efflux ratio of permeability across basolateral to apical side over apical to basolateral side in MDCK cells transfected with human MDR1 in absence of elacridar; details: dog
[3] = Metabolic stability in human liver microsomes assessed as intrinsic clearance at 0.5 uM incubated for 40 mins in presence of NADPH; format: ADME, Microsome; details: read-out: CLH
[4] = Metabolic stability in mouse liver microsomes assessed as intrinsic clearance at 0.5 uM incubated for 40 mins in presence of NADPH; format: ADME, Microsome; details: read-out: CLH
[5] = Protein binding in mouse plasma assessed as unbound fraction by ultracentrifugation; details: plasma
[6] = test system: BXPC-3; assay: Antiproliferative activity against human BXPC-3 cells assessed as effect on cell viability; format: functional, cell-based
[7] = target: Voltage-gated inwardly rectifying potassium channel KCNH2 (Homo sapiens, UniProt Q12809); assay: Inhibition of human ERG by binding assay
Sequence of Voltage-gated inwardly rectifying potassium channel KCNH2 (Q12809 whole entry): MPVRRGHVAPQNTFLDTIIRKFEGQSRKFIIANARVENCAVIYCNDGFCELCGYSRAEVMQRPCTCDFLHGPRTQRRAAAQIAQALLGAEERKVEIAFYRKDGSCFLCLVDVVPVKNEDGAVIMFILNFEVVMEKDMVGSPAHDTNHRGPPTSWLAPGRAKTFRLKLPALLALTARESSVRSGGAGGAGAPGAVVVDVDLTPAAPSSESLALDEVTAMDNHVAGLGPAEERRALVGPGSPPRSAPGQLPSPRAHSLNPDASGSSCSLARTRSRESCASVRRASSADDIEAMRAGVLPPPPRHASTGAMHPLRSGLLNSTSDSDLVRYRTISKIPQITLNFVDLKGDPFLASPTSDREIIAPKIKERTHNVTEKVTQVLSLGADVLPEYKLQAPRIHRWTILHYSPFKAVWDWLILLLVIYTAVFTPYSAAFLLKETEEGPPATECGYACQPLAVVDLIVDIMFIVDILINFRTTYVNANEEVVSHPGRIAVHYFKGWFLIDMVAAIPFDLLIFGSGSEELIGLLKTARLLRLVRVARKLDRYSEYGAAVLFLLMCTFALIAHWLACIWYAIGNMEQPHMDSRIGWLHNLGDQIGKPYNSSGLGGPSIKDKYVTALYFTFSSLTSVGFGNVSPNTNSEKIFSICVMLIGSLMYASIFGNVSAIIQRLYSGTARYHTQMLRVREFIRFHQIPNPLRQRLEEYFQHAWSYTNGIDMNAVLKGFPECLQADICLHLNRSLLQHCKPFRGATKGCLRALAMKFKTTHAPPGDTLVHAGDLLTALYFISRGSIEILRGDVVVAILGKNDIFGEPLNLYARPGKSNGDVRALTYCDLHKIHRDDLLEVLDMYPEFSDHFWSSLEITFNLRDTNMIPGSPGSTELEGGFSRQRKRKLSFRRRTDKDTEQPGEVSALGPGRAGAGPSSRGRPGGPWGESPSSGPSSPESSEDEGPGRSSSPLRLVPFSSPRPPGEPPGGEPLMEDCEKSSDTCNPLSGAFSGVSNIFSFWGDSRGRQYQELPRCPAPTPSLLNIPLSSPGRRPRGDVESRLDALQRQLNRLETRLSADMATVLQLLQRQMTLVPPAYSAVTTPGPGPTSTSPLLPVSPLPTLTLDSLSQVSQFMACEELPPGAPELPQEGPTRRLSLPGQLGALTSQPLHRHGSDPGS

[8] = Solubility of compound in PBS buffer at pH 7.4
[9] = target: Cytochrome P450 2D6 (Homo sapiens, UniProt P10635); assay: Inhibition of CYP2D6 (unknown origin)
Sequence of Cytochrome P450 2D6 (P10635 whole entry): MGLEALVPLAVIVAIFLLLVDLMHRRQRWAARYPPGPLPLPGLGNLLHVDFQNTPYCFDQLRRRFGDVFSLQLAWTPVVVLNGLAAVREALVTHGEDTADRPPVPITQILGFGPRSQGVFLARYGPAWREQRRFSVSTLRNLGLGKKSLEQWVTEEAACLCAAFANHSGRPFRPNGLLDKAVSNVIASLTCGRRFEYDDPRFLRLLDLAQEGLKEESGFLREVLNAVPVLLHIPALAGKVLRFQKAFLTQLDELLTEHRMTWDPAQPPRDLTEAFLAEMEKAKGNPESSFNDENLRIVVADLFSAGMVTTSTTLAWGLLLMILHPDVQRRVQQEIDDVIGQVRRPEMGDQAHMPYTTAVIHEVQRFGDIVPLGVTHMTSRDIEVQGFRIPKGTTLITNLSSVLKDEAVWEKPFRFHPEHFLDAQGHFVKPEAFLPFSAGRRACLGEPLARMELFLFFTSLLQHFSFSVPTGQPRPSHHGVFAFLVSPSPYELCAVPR

[10] = Metabolic stability in rat liver microsomes assessed as intrinsic clearance; format: ADME, Microsome; details: time 40 min, read-out: CLH
[11] = Metabolic stability in human hepatocytes assessed as intrinsic clearance measured per 10^6 cells; format: ADME, cell-based, Hepatocyte; details: read-out: CLH
[12] = Metabolic stability in mouse hepatocytes assessed as intrinsic clearance measured per 10^6 cells; format: ADME, cell-based, Hepatocyte; details: read-out: CLH
[13] = Metabolic stability in dog hepatocytes assessed as intrinsic clearance measured per 10^6 cells; format: ADME, cell-based, Canis lupus familiaris, Hepatocyte; details: read-out: CLH
[14] = Protein binding in rat plasma assessed as unbound fraction by ultracentrifugation
[15] = Protein binding in dog plasma assessed as unbound fraction by ultracentrifugation
[16] = target: Protein arginine N-methyltransferase 5 (Homo sapiens) (UniProt O14744); assay: Binding affinity to PRMT5 (unknown origin) assessed as occupancy in presence of MTA by SPR analysis relative to control
Sequence of Protein arginine N-methyltransferase 5 (Homo sapiens) (O14744 whole entry): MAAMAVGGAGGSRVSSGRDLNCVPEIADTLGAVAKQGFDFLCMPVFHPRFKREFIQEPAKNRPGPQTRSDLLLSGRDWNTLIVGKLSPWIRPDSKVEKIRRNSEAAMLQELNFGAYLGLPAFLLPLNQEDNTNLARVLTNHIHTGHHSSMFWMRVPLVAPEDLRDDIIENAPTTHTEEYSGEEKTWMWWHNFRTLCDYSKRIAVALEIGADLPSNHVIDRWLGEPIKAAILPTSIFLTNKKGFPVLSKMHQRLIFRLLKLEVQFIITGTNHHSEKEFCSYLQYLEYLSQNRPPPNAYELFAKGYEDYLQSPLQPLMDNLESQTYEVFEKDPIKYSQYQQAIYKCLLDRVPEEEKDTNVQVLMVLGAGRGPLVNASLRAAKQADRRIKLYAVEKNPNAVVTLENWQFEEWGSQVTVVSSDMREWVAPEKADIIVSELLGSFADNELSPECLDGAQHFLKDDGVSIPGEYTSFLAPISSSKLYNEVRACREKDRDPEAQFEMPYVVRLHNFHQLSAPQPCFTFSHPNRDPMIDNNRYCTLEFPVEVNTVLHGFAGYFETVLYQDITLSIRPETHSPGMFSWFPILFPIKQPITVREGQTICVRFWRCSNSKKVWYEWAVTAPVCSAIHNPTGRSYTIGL

[17] = Mutagenicity in Salmonella typhimurium by Ames test; format: toxicity; details: salmonella enterica subsp. enterica serovar typhimurium
[18] = Efflux ratio in MDCK-II cells; details: dog
[19] = target: T1, Broad substrate specificity ATP-binding cassette transporter ABCG2 (Homo sapiens, UniProt Q9UNQ0); assay: Effect on BCRP (unknown origin)-mediated transport up to 10 uM
T1 sequence (Q9UNQ0 whole entry): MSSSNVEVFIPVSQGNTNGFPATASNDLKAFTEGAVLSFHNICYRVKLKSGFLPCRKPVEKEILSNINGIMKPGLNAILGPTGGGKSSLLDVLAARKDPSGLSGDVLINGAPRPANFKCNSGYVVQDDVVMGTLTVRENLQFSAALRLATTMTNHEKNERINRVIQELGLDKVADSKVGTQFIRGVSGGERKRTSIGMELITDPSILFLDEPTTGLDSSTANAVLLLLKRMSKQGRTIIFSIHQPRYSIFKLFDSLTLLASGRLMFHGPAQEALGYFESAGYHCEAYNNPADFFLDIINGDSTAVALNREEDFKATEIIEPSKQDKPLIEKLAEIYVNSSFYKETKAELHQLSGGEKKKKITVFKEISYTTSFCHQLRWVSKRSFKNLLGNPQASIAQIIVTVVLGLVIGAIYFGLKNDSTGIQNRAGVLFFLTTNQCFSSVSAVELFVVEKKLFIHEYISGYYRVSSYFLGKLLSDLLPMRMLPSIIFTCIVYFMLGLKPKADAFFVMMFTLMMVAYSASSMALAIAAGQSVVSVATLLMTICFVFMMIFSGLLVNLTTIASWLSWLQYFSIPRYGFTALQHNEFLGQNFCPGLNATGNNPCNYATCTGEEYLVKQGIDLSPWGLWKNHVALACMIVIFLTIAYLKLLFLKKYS

[20] = target: Protein arginine N-methyltransferase 5 (Homo sapiens) (UniProt O14744); assay: In vivo inhibition of PRMT5 in athymic nude mouse xenografted with MTAP-deleted human HCT-116 cells assessed as decrease in SDMA level in tumor at 10 mg/kg, po administered once daily for 4 days and measured 4 hrs post last dose by ELISA relative to control; format: functional, organism-based; details: time 4.0 day
[21] = test system: HCT-116; assay: Antitumor activity against MTAP-deleted human HCT-116 cells xenografted in female athymic nude mouse model assessed as tumor growth inhibition at 3 mg/kg, po administered once daily for 14 days relative to control; format: functional; details: HCT-116, 336 h, time 14 day, read-out: TGI
[22] = Toxicity in female athymic nude mouse xenografted with MTAP-deleted human HCT-116 cells assessed as body weight change at 3 to 100 mg/kg, po administered once daily for 14 days; format: organism-based; details: in vivo, 336 h, dose 3-100 mg/kg, time 14 day
[23] = test system: BXPC-3; assay: Antitumor activity against MTAP-deleted human BXPC-3 cells xenografted in athymic nude mouse model assessed as tumor growth inhibition at 10 mg/kg, po administered once daily for 26 days and measured 24 hrs post last dose relative to control; format: functional; details: BXPC-3, 648 h, time 27 day, read-out: TGI
[24] = Drug uptake in plasma of athymic nude mouse xenografted with MTAP-deleted human BXPC-3 cells at 10 to 100 mg/kg, po administered once daily for 26 days and measured 24 hrs post last dose by LC-SRM/MS analysis; format: ADME, organism-based; details: in vivo, 648 h, dose 10-100 mg/kg, time 27 day
[25] = Antitumor activity against MTAP-deleted human U-87 MG cells xenografted in female athymic nude mouse model assessed as tumor growth inhibition at 30 mg/kg, po administered once daily for 14 days and measured 24 hrs post last dose relative to control; format: functional, U-87MG ATCC; details: 360 h, time 15 day, read-out: TGI
[26] = target: Protein arginine N-methyltransferase 5 (Homo sapiens) (UniProt O14744); assay: In vivo inhibition of PRMT5 in female athymic nude mouse xenografted with MTAP-deleted human U-87 MG cells assessed as decrease in SDMA level in tumor at 10 mg/kg, po administered once daily for 14 days and measured 2 to 8 hrs post last dose by ELISA relative to control; format: functional, organism-based; details: time 338-344 hrs
[27] = target: Protein arginine N-methyltransferase 5 (Homo sapiens) (UniProt O14744); assay: In vivo inhibition of PRMT5 in female athymic nude mouse xenografted with MTAP-deleted human U-87 MG cells assessed as decrease in SDMA level in tumor at 100 mg/kg, po administered once daily for 14 days and measured 2 to 8 hrs post last dose by ELISA relative to control; format: functional, organism-based; details: time 338-344 hrs
[28] = Toxicity in athymic nude mouse xenografted with MTAP-deleted human BXPC-3 cells assessed as effect on body weight at 10 to 100 mg/kg, po administered once daily for 26 days; format: organism-based; details: in vivo, 624 h, dose 10-100 mg/kg, time 26 day
[29] = target: PRMT5/MEP50 complex (Homo sapiens, UniProt O14744)
Sequence of PRMT5/MEP50 complex (O14744 whole entry): as the sequence (O14744 whole entry) above
Sequence of PRMT5/MEP50 complex (Q9BQA1 whole entry, further chain): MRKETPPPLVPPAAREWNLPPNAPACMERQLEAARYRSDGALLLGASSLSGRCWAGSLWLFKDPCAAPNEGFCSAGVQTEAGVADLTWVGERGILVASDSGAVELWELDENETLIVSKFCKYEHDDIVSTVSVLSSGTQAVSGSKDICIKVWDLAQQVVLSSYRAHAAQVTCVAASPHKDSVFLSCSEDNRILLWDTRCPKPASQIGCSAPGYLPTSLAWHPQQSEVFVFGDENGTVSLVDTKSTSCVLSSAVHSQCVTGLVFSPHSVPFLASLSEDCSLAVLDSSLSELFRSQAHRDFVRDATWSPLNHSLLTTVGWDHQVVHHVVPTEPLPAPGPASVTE
Description: Inhibition of PRMT5/MEP50 (unknown origin) preincubated with compound for 24 hrs in presence of SAM and MTA followed by Histone H4 (1-21)-Lys(Biotin) peptide addition and measured after 2 hrs by MTase-Glo reagent based assay

[30] = in vivo; details: Sprague-Dawley, rat, po, 2 mg/kg, pH 2
[31] = target: CYP3A4 (Homo sapiens, UniProt P08684); assay: in vitro; details: human liver microsomes, probe midazolam
Sequence of CYP3A4 (P08684 whole entry): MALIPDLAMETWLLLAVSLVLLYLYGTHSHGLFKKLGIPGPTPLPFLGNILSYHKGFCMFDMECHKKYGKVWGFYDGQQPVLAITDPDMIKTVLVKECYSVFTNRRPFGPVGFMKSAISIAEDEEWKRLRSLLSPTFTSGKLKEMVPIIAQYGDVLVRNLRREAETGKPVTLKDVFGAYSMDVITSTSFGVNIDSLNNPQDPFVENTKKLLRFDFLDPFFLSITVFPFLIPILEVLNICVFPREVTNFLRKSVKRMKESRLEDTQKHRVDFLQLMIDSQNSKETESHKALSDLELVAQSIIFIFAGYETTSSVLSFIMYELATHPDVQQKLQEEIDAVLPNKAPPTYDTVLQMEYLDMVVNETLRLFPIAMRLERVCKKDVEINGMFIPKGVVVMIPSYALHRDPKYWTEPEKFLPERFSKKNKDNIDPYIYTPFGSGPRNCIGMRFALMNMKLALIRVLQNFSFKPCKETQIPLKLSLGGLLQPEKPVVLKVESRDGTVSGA

With `Nc1nc2cnc(C(=O)N3CCOC[C@@H]3c3ccc(C(F)(F)F)cc3)cc2c2c1COC2` the IC50 [1] was 4.33 µM, the efflux ratio [2] was 3 and the microsomal CLint at 0.5 µM [3] was 24 µL/min/mg. It also gave a microsomal CLint at 0.5 µM [4] of 37 µL/min/mg, a fraction unbound [5] of 0.07 and an IC50 [6] of 0.218 µM. It also gave an IC50 [7] of over 29 µM, a solubility [8] of 257 µM (≈ 114 µg/mL) and an IC50 [9] of 117 µM. For the same compound, the microsomal CLint at 0.5 µM [10] was 123 µL/min/mg, the hepatocyte CLint [11] was 6 µL/min/1e6 cells and the hepatocyte CLint [12] was 13 µL/min/1e6 cells. It also gave a hepatocyte CLint [13] of 5 µL/min/1e6 cells, a fraction unbound [14] of 0.1 and a fraction unbound [15] of 0.08. For the same compound, the Occ [16] was 70%, the Activity [17] was “Non-toxic” and the efflux ratio [18] was 3. For the same compound, the Activity [19] was “Not_active”, the inhibition [20] was 73% and the inhibition in vivo at 3 mg/kg [21] was 54%. For the same compound, the Activity [22] was “Non-toxic”, the inhibition in vivo at 10 mg/kg [23] was 19% and the Drug uptake [24] was “Active”. It also gave an inhibition in vivo at 30 mg/kg [25] of 57%, an inhibition [26] of 68% and an inhibition [27] of 83%. For the same compound, the Activity [28] was “Non-toxic”, the Ki [29] was under 0.0001 µM and the bioavailability [30] was 60%. It also gave an inhibition at 30 min, 10 µM [31] of under 20%.
